*1 amine or outer side, *2 acyl side, *3 side chain or, on linkers, in order; H or OH if unused. Where a SMILES comes first, the peptide text is derived from it. Bridges are numbered along the chain shown (N, C = ends). The star is where a group is joined. Dabcyl = CN(C)c1ccc(N=Nc2ccc(C(=O)*)cc2)cc1; TBMB = c1c(C[*:1])cc(C[*:3])cc1C[*:2]; X1 = O=C(C[*:2])[*:1]
Key:
HEK-293T cells [1] = test: Cellular uptake by fluorescence microscopy; format: cell-based; details: for cellular uptake: data is not shown; for internalization into HEK-293T cells: fluorescence microscopy, serum-free medium, 37 °C, up to 3 h, Figure 1
Procedure: (§1) The cellular uptake of the fluorescent labeled peptide into HEK-293T cells were analyzed by fluorescence microscopy (Cytation 3, BioTek Instruments) and two peptides were further examined by confocal laser scanning microscopy (Zeiss LSM-710 system). Cells were incubated with peptides in serum-free medium (DMEM) for 3 h at 37 °C and then washed twice with 200 μl of serum-free medium before analyzing.

active ERK2 (pp-ERK2) = active ERK2 (pp-ERK2) (Homo sapiens, UniProt P28482); test: In vitro MAPK activity assay (Nanobit luciferase protein fragment complementation), ERK2; format: biochemical; details: for EC50 increase relative to peptide 8: ratio of EC50 values, compared with peptide 8; for EC50: 1 nM pp-ERK2, 2 mM ATP, 50 mM HEPES pH 7.5, initial rates, luminescence, at least 3 independent measurements
Sequence of active ERK2 (pp-ERK2) (P28482 whole entry, the tested form may be a part): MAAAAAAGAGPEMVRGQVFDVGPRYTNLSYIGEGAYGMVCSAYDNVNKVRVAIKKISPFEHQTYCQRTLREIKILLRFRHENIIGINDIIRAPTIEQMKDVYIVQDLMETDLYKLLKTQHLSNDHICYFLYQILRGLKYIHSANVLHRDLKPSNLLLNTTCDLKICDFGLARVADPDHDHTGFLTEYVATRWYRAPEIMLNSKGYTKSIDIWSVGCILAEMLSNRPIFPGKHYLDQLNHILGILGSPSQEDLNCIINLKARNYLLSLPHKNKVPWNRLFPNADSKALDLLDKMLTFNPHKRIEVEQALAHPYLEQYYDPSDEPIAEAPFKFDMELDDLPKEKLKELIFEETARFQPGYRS
Procedure: (§2) In order to determine the inhibitory effect of RHDF-peptides, we used a protein fragment complementation based assay. […] Upon MAPK activity, these two proteins bind and form the active luciferase enzyme oxidizing its substrate (coelenterazine) and ultimately giving some luminescent signal. The initial rates of the reactions were calculated and were compared for the applied inhibitor’s concentration, and then EC50 values were determined using dose response fitting (OriginPro) (see in Supplementary Figure S26). Reactions were carried out in a buffer of 50 mM HEPES, pH 7.5, 100 mM NaCl, 5 mM MgCl2, 0.05% IGEPAL, 50 μM Coelenterazine h, 5% glycerol, 2 mM DTT, 1mM TCEP, 0.5 mg/ml BSA containing 1 nM active ERK2 (pp-ERK2) or p38 (pp-p38α) and were started by the addition of 2 mM ATP. Luminescence was measured using a luminescence plate reader (Cytation 3, BioTek) in white 96-well plates.

p38α = molecular target: T1, p38α (Homo sapiens, UniProt Q16539); test: Fluorescence polarization competitive binding assay, p38; details: competitive FP titration against 50 nM Cf-RHDF (gives Ki, used as proxy of Kd); 20 mM Tris pH 8.0, 100 mM NaCl, 0.05% Brij35, 2 mM TCEP; at least 3 independent measurements; read-out: Kd (µM) ± sd, p38
T1 construct: made in house; host or cells: Escherichia coli
T1 sequence (Q16539 whole entry): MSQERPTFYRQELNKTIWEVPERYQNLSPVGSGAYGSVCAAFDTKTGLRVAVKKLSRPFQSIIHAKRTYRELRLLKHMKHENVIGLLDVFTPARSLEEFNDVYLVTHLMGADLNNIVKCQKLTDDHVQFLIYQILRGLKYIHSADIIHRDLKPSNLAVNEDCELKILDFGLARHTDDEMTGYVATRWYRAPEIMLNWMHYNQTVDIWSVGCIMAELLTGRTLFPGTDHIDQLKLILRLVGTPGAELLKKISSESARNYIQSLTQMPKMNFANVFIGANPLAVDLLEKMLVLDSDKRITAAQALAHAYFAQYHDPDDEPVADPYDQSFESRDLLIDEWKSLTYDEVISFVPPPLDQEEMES
Procedure: (§3) ERK2 and p38 proteins used for fluorescence polarization (FP) measurements were recombinantly expressed in Escherichia coli and purified according to Garai et al. The purified and concentrated proteins were subjected to fluorescence polarization based binding measurements ([Garai et al., 2012]) using 50 nM Cf-labeled Cf-RHDF (Cf-SLQRKKPPWLKLDIPSC) and the data was analyzed using OriginPro. For direct measurements the concentration of ERK2 and p38 protein was increased, and for competitive measurements the protein-labeled peptide complex at 60–80% complex formation was titrated with increasing concentration of unlabeled peptide and the amount of the protein-labeled peptide complex (fraction bound) was determined using Cytation 3 (BioTek Instruments) plate reader in 384-well black plates. The direct measurement gives the Kd between the labeled peptide and the MAPK, while the competitive titration experiment with the unlabeled peptide gives the Ki for the unlabeled peptide competing off the labeled peptide, which is a good proxy for the binding affinity of the unlabeled peptide to the protein. All of the FP measurements were performed in assay buffer: 20 mM Tris (pH 8.0), 100 mM NaCl, 0.05% Brij35, and 2 mM TCEP. Fraction bound of the labeled ligand was calculated based on direct binding and competitive binding equations described in ([Roehrl et al., 2004]; [Simon et al., 2020]). The Kd and Ki values were obtained by fitting the FP data, measured in triplicates, to a direct binding equation or to a competitive binding equation using the OriginPro software.

ERK2 = molecular target: T2, ERK2 (Homo sapiens, UniProt P28482); test: Fluorescence polarization competitive binding assay, ERK2; details: for Kd: competitive FP titration against 50 nM Cf-RHDF (gives Ki, used as proxy of Kd), 20 mM Tris pH 8.0, 100 mM NaCl, 0.05% Brij35, 2 mM TCEP, at least 3 independent measurements, read-out: Kd (µM) ± sd, ERK2
T2 construct: made in house; host or cells: Escherichia coli
T2 sequence (P28482 whole entry, species assumed): as the sequence (P28482 whole entry, the tested form may be a part) above
Procedure: as §3

HEK-293T cells [2] = test: Intracellular distribution by confocal laser scanning microscopy; format: cell-based; details: 10 and 20 µM, 3 h
Procedure: as §1

p38 (pp-p38α) = p38 (pp-p38α) (Homo sapiens, UniProt Q16539); test: In vitro MAPK activity assay (Nanobit luciferase protein fragment complementation), p38; format: biochemical; details: 1 nM pp-p38α, 2 mM ATP, 50 mM HEPES pH 7.5; initial rates, luminescence; at least 3 independent measurements
Sequence of p38 (pp-p38α) (Q16539 whole entry, the tested form may be a part): as the sequence (Q16539 whole entry) above
Procedure: as §2

## CC[C@H](C)[C@H](NC(=O)[C@H](CC(=O)O)NC(=O)[C@H](CC(C)C)NC(=O)[C@H](CCCCN)NC(=O)[C@H](CC(C)C)NC(=O)[C@H](Cc1c[nH]c2ccccc12)NC(=O)[C@@H]1CCCN1C(=O)[C@@H]1CCCN1C(=O)[C@H](CCCCN)NC(=O)[C@H](CCCCN)NC(=O)[C@H](CCCNC(=N)N)NC(=O)[C@H](CCC(N)=O)NC(=O)[C@H](CC(C)C)NC(=O)[C@@H](N)CO)C(=O)N1CCC[C@H]1C(=O)N[C@@H](CO)C(=O)N[C@@H](CS)C(N)=O [compound 1, H-SLQRKKPPWLKLDIPSC-NH 2]
HEK-293T cells [1]
  cellular uptake: poor

## CC[C@H](C)[C@H](NC(=O)[C@H](CC(=O)O)NC(=O)[C@H](CC(C)C)NC(=O)[C@H](CCCNC(=N)N)NC(=O)[C@H](CC(C)C)NC(=O)[C@H](Cc1c[nH]c2ccccc12)NC(=O)[C@@H]1CCCN1C(=O)[C@@H]1CCCN1C(=O)[C@H](CCCNC(=N)N)NC(=O)[C@H](CCCNC(=N)N)NC(=O)[C@H](CCCNC(=N)N)NC(=O)c1ccc(/N=N/c2ccc(N(C)C)cc2)cc1)C(=O)N[C@@H](CCCNC(=N)N)C(=O)N[C@@H](CCCNC(=N)N)C(=O)N[C@@H](CCCCN)C(N)=O [compound 10, Dabcyl-RRRPPWLRLDIRRK-NH 2]
Active ERK2 (pp-ERK2)
  EC50 increase relative to peptide 8: 2.4 times

## CC(C)C[C@@H]1NC(=O)[C@H](CCCNC(=N)N)NC(=O)[C@H](CC(C)C)NC(=O)[C@@H](NC(=O)[C@H](Cc2c[nH]c3ccccc23)NC(=O)[C@@H]2CCCN2C(=O)[C@@H]2CCCN2C(=O)[C@H](CCCNC(=N)N)NC(=O)[C@H](CCCNC(=N)N)NC(=O)[C@H](CCCNC(=N)N)NC(=O)c2ccc(N=Nc3ccc(N(C)C)cc3)cc2)CCCCNC(=O)CSC[C@@H](C(N)=O)NC(=O)[C@H](CCCNC(=N)N)NC(=O)[C@H](CCCNC(=N)N)NC(=O)[C@H](CC(=O)O)NC1=O [compound 12] (Dabcyl-RRRPPWKLRLDRRC-NH2; linker 7-14 via X1)
p38α
  Kd: 1.7 ± 0.4 µM
ERK2
  Kd: 4.1 ± 0.3 µM

## CC(C)C[C@@H]1NC(=O)[C@H](CCCNC(=N)N)NC(=O)[C@H](CC(C)C)NC(=O)[C@H](Cc2c[nH]c3ccccc23)NC(=O)[C@@H]2CCCN2C(=O)[C@@H]2CCCN2C(=O)[C@@H](NC(=O)[C@H](CCCNC(=N)N)NC(=O)[C@H](CCCNC(=N)N)NC(=O)[C@H](CCCNC(=N)N)NC(=O)c2ccc(N=Nc3ccc(N(C)C)cc3)cc2)CCCCNC(=O)CSC[C@@H](C(N)=O)NC(=O)[C@H](CCCNC(=N)N)NC(=O)[C@H](CCCNC(=N)N)NC(=O)[C@H](CC(=O)O)NC1=O [compound 13] (Dabcyl-RRRKPPWLRLDRRC-NH2; linker 4-14 via X1)
p38α
  Kd: 1 ± 0.7 µM
ERK2
  Kd: 1 ± 0.2 µM

## CC(C)C[C@@H]1NC(=O)[C@H](CCCNC(=N)N)NC(=O)[C@H](CC(C)C)NC(=O)[C@H](Cc2c[nH]c3ccccc23)NC(=O)[C@@H]2CCCN2C(=O)[C@@H]2CCCN2C(=O)[C@H](CCCNC(=N)N)NC(=O)[C@H](CCCNC(=N)N)NC(=O)[C@H](CCCNC(=N)N)NC(=O)[C@@H](NC(=O)c2ccc(N=Nc3ccc(N(C)C)cc3)cc2)CCCCNC(=O)CSC[C@@H](C(N)=O)NC(=O)[C@H](CCCNC(=N)N)NC(=O)[C@H](CCCNC(=N)N)NC(=O)[C@H](CC(=O)O)NC1=O [compound 14] (Dabcyl-KRRRPPWLRLDRRC-NH2; linker 1-14 via X1)
p38α
  Kd: 2.1 ± 0.6 µM
ERK2
  Kd: 5.1 ± 0.4 µM

## CC[C@H](C)[C@@H]1NC(=O)[C@H](CC(=O)O)NC(=O)[C@H](CC(C)C)NC(=O)[C@H](CCCNC(=N)N)NC(=O)[C@H](CC(C)C)NC(=O)[C@H](Cc2c[nH]c3ccccc23)NC(=O)[C@@H]2CCCN2C(=O)[C@@H]2CCCN2C(=O)[C@@H](NC(=O)[C@H](CCCNC(=N)N)NC(=O)[C@H](CCCNC(=N)N)NC(=O)[C@H](CCCNC(=N)N)NC(=O)c2ccc(N=Nc3ccc(N(C)C)cc3)cc2)CCCCNC(=O)CSC[C@@H](C(N)=O)NC(=O)[C@H](CCCNC(=N)N)NC(=O)[C@H](CCCNC(=N)N)NC1=O [compound 15] (Dabcyl-RRRKPPWLRLDIRRC-NH2; linker 4-15 via X1)
p38α
  Kd: 1.2 ± 0.6 µM
ERK2
  Kd: 1.5 ± 0.3 µM

## CC[C@H](C)[C@@H]1NC(=O)[C@H](CC(=O)O)NC(=O)[C@H](CC(C)C)NC(=O)[C@H](CCCNC(=N)N)NC(=O)[C@H](CC(C)C)NC(=O)[C@@H]2CSCc3cc(cc(c3)CSC[C@H](NC(=O)[C@H](CCCNC(=N)N)NC(=O)[C@H](CCCNC(=N)N)NC(=O)[C@H](CCCNC(=N)N)NC(=O)c3ccc(N=Nc4ccc(N(C)C)cc4)cc3)C(=O)N3CCC[C@H]3C(=O)N3CCC[C@H]3C(=O)N[C@@H](Cc3c[nH]c4ccccc34)C(=O)N2)CSC[C@@H](C(N)=O)NC(=O)[C@H](CCCNC(=N)N)NC(=O)[C@H](CCCNC(=N)N)NC1=O [compound 16] (Dabcyl-RRRCPPWCLRLDIRRC-NH2; linker 4-8-16 via TBMB)
p38α
  Kd: 1.4 ± 0.4 µM
ERK2
  Kd: 0.9 ± 0.2 µM

## CC(C)C[C@@H]1NC(=O)[C@H](CCCNC(=N)N)NC(=O)[C@H](CC(C)C)NC(=O)[C@@H]2CSCc3cc(cc(c3)CSC[C@H](NC(=O)[C@H](CCCNC(=N)N)NC(=O)[C@H](CCCNC(=N)N)NC(=O)[C@H](CCCNC(=N)N)NC(=O)c3ccc(N=Nc4ccc(N(C)C)cc4)cc3)C(=O)N3CCC[C@H]3C(=O)N3CCC[C@H]3C(=O)N[C@@H](Cc3c[nH]c4ccccc34)C(=O)N2)CSC[C@@H](C(N)=O)NC(=O)[C@H](CCCNC(=N)N)NC(=O)[C@H](CCCNC(=N)N)NC(=O)[C@H](CC(=O)O)NC1=O [compound 17] (Dabcyl-RRRCPPWCLRLDRRC-NH2; linker 4-8-15 via TBMB)
p38α
  Kd: 3.2 ± 0.7 µM
ERK2
  Kd: 4.5 ± 0.6 µM

## Cf- RRRPPWLRLDIRR-NH 2 [compound 9]
HEK-293T cells [1]
  internalization into HEK-293T cells: time and concentration dependent internalization
HEK-293T cells [2]
  intracellular distribution: punctuated

## Cf-RRPPWLRLDIRR-NH 2 [compound 7]
HEK-293T cells [1]
  internalization into HEK-293T cells: time and concentration dependent internalization

## H-KKPPWLKLDI-NH2 [compound 4, H-KKPPWLKLDI-NH 2]
HEK-293T cells [1]
  cellular uptake: poor
ERK2; ERK2 Kd, compared with original peptide 1
  binding decrease relative to the original peptide: 8.3 times

## H-RRPPWLRLDI-NH2 [compound 5, H-RRPPWLRLDI-NH 2]
HEK-293T cells [1]
  cellular uptake: poor

## H-RRPPWLRLDIRR-NH2 [compound 6, H-RRPPWLRLDIRR-NH 2]
Active ERK2 (pp-ERK2)
  EC50: 12.9 µM
  EC50 increase relative to peptide 8: 3.7 times
p38 (pp-p38α)
  EC50: 3.7 µM
ERK2; ERK2 Kd, compared with peptide 5
  binding enhancement by extension of the C-terminus by two Arg: 3.5 times

## H-RRRPPWLRLDIRR-NH2 [compound 8, H-RRRPPWLRLDIRR-NH 2]
Active ERK2 (pp-ERK2)
  EC50: 3.5 µM
p38 (pp-p38α)
  EC50: 1.3 µM
p38α
  Kd: 1.4 ± 0.3 µM

Reference: article PMC8281026, “Peptide Based Inhibitors of Protein Binding to the Mitogen-Activated Protein Kinase Docking Groove” (Frontiers in Molecular Biosciences, 2021)
